In patent US20230368862A1, “BINDING SITE IN TYPE 2 RYANODINE RECEPTOR” (The Trustees of Columbia University in the City of New York, priority 2021, published 2023):

Tests used:
[1] = target: T1, PKA phosphorylated RyR2-R2474S (Homo sapiens, UniProt Q92736, R2474S); test: Cryo-EM analysis with normalized difference in RMSD (pairwise domain comparison)
T1 construct: Each fragment was subcloned into a full-length human RYR2 construct in pCMV5 vector; made in house; host or cells: HEK293 (RyR2-R2474S, transient); E. coli BL21(DE3) (GST-calstabin-2)
Protocol: Each of the final samples (3 μl each) prepared in EXAMPLE 5 was applied to UltrAuFoil holey gold grids (Quantifoil R 0.6/1.0, Au 300) previously cleaned with easiGlow (PELCO). Grids were blotted with ashless filter paper (Whatman) using blot force 10 and blot time 8 s before vitrification by plunge-freezing into liquid ethane chilled with liquid nitrogen using Vitrobot Mark IV (Thermo Fisher Scientific) operated at 4° C. with 100% relative humidity.
Prepared grids were screened in-house on a Glacios Cryo-TEM (Thermo Fisher Scientific) microscope with a 200-kV x-FEG source and a Falcon 3EC direct electron detector (Thermo Fisher Scientific). Microscope operations and data collection were carried out using EPU software (Thermo Fisher Scientific). High-resolution data collection was performed at Columbia University on a Titan Krios 300-kV (Thermo Fisher Scientific) microscope equipped with an energy filter (slit width 20 eV) and a K3 direct electron detector (Gatan). Data were collected using Leginon and at a nominal magnification of ×105,000 in electron counting mode, corresponding to a pixel size of 0.83 Å. The electron dose rate was set to 16 e^−/pixel per second with 2.5-s exposures for a total dose of 50 to 60 e/A2.
Cryo-EM data processing was performed in cryoSPARC with image stacks aligned using Patch motion, defocus value estimation by Patch CTF estimation. Particle picking was performed using the template picker with templates created from preexisting cryo-EM maps. Particles were subjected to 2D classification in cryoSPARC with 100 classes. Particles from the highest-resolution classes were pooled for ab initio 3D reconstruction with a single class followed by homogeneous refinement with C4 symmetry imposed. 3D variability and further clustering were performed using a mask comprising the TM domain to separate those particles in the closed and open states followed by heterogeneous refinement with four classes to further select the best particles. C4 symmetry expansion was performed before local refinements. The masks used were TaF+TM+CTD domains (residues 4131 to 4967), calstabin-2+NTD+SPRY domains (residues 1 to 1646), JSol+CSol domains (residues 1700 to 2476, 3590 to 4130), and BSol domain (residues 2400 to 3344). Only the TaF+TM+CTD mask used C4 symmetry. Smaller masks, for a second round of 3D variability analysis, clustering, and local refinement, were RY1&2 (residues 862 to 1076), RY3&4 (residues 2685 to 2909), and BSol2 (residues 3042 to 3344). Local refinements used a dynamical mask with a far distance of 10, 50, and 150 Å for the initial masks, small masks, and expanded RY3&4 mask for comparing the effect of RY3&4 stabilization, respectively. The resulting maps were combined in ChimeraX to generate a composite map before calibration of the pixel size using correlation coefficients with a map generated from the crystal structure of the NTD of RyR2 (PDB ID: 4JKQ). The pixel size was altered by 0.001 Å per step, up to 20 steps in each direction.
An initial model of RYR2 was generated with Phenix tool sculptor from a 2.45-Å structure of RyR1 (PDB ID: 7TZC). Truncated residues were manually corrected to obtain the full side chains. Only domains RY1&2 and RY3&4, which show weak cryo-EM density and confidence in structure, were based on crystallographic structures. The initial model of RyR2 RY1&2 domain was generated with Phenix tool sculptor from the RY1&2 domain of RyR3 with ATP (PDB ID: […]). The model of RyR2 RY3&4 domain was obtained as is (PDB ID: 4ETV). Calstabin-2 and CaM models were obtained as is (PDB ID: 6JI8). Model building was performed in Coot and refined with Phenix tool RealSpaceRefine.
This analysis determined the conformation of a certain query domain from a model X relative to reference closed and open states of RyR2. To this end, the RMSD of Ca of the query domain was measured between model X and the closed state (RMSDX-closed), and between model X and the open state (RMSDX-open). […]

Ryr2^R2474S/WT mice = test: Telemetric electrocardiogram recordings during epinephrine arrhythmia provocation; format: in vivo
Excerpt: Ryr2^R2474S/WT mice were implanted with radio telemetry transmitters (Data Sciences International). Briefly, the transmitter (PhysioTel, ETA-F10 transmitter) was inserted in mice subcutaneously along the back under general anesthesia (5% inhaled isoflurane). Two electrocardiogram (ECG) electrodes were placed hypodermically in the region of the right shoulder (negative pole) and toward the lower left chest (positive pole) to approximate lead II of the Einthoven surface ECG. During the procedure, respiratory and cardiac rhythm, adequacy of anesthetic depth, muscle relaxation, body temperature, and analgesia were monitored to avoid anesthesia-related complications. Postoperative pain was considered during a 1-week post-implantation period, and carprofen (5 mg/kg, subcutaneously) was given. A minimum period of 2 weeks was allowed for recovery from the surgery. Animals were housed in individual stainless-steel cages for telemetry recordings. Environmental parameters were recorded continuously and maintained within a fixed range: room temperature at 15° C. to 21° C. and 45 to 65% relative humidity. The artificial day/night cycle was 12-hour light/12-hour dark with light on at 0700 hours. Drinking water was provided ad libitum. Solid diet ([…]) was given daily in the morning. ECG waveforms were continuously recorded at a sampling rate of 2000 Hz using a signal transmitter-receiver (RPC-1) connected to a data acquisition system (Ponemah system, Data Sciences International). Compound 1 (50 mg/kg per day) was given in drinking water for 2 weeks before ECG recordings. Mice were recorded for 1 hour at baseline and then given epinephrine injection (1 mg/kg, intraperitoneally) and recorded for another 2 hours. The animals used in the study were maintained and studied according to protocols approved by the Institutional Animal Care and Use Committee of Columbia University (reference no. AC-AABP1551).

RyR2-R2474S channels = target: T2, RyR2-R2474S channels (Mus musculus, UniProt E9Q401, R2473S); test: SR Ca^2+ leak assay in heart microsomes (Fluo-4); format: biochemical; details: heart microsomes from mice treated with epinephrine and Compound 1 in vivo
T2 construct: Cardiac muscle SR microsomes were prepared by homogenizing heart samples on ice; from tissue; host or cells: heart of Ryr2 R2474S/WT mice (SR microsomes)
Protocol: Ca^2+ leak was measured in microsomes from heart lysates isolated from control Ryr^2R2474S/WT mice, Ryr^2R2474S/WT mice treated with epinephrine, and Ryr^2R2474S/WT mice treated with epinephrine and Compound 1 in EXAMPLE 8. […] Cardiac muscle SR microsomes were prepared by homogenizing heart samples on ice using a Teflon glass homogenizer (50 times) with 2 volumes of 20 mM tris-maleate (pH 7.4), 1 mM EDTA, 1 mM DTT, and protease inhibitors (Roche). Homogenate was then spun by centrifuge at 4000 g for 15 min at 4° C., and the resultant supernatant was spun by centrifuge at 50,000 g for 45 min at 4° C. Pellets were resuspended in lysis buffer containing 300 mM sucrose. Microsomes ([…]) were diluted into a buffer (pH 7.2) containing 8 mM K-phosphocreatine, and creatine kinase (2 U/ml), mixed with 3 μM Fluo-4 and added to multiple wells of a 96-well plate. Ca^2+ loading of the microsomes was initiated by adding 1 mM ATP. After Ca^2+ uptake (50 s), 3 μM thapsigargin was added to inhibit the Ca^2+ reuptake by SERCA. SR Ca^2+ leak was measured by the increase in intensity of the Fluo-4 signal (measured in a Tecan fluorescence plate reader). Ca^2+ leak was quantified as the difference between the average Fluo-4 signal before and after addition of thapsigargin. Graphs were plotted with GraphPad Prism software.

recombinant RyR2 = target: T3, recombinant RyR2 (Homo sapiens, UniProt Q92736); test: Single channel recordings in planar lipid bilayers (open probability); format: biochemical; details: xanthine 10 μM; Ca2+ 150 nM
T3 construct: expressed in transfected cells; host or cells: HEK293
Protocol: To confirm the functional role of xanthine in RyR2, single-channel experiments were performed. ER vesicles from HEK293 cells expressing RyR2 were prepared by homogenizing cell pellets on ice using a Teflon glass homogenizer with two volumes of solution containing 20 mM tris-maleate (pH 7.4), 1 mM EDTA, 1 mM DTT, and protease inhibitors (Roche). Homogenate was then spun by centrifuge at 4000 g for 15 min at 4° C., and the resulting supernatant was spun by centrifuge at 40,000 g for 30 min at 4° C. The final pellet, containing the ER fractions, was resuspended and aliquoted in 250 mM sucrose, 10 mM Mops (pH 7.4), 1 mM EDTA, 1 mM DTT, and protease inhibitors. Samples were frozen in liquid nitrogen and stored at −80° C.
ER vesicles were fused to planar lipid bilayers formed by painting a lipid mixture of phosphatidylethanolamine and PC (Avanti Polar Lipids) in a 5:3 ratio in decane across a […] in polysulfonate cups (Warner Instruments) separating two chambers. […] The concentration of free Ca^2+ in the cis chamber was calculated as previously described. […] Single-channel currents were recorded at 0 mV using Bilayer Clamp BC-525D (Warner Instruments), filtered at 1 kHz using Low-Pass Bessel Filter 8 Pole (Warner Instruments), and digitized at 4 kHz. […] The recordings were analyzed using Clampfit 10.1 (Molecular Devices) and GraphPad Prism software.

[2] = P-RyR2-R2474S + Cpd1 vs closed/open PKA RyR2, 0 = closed state, 1 = open state
[3] = 50 mg/kg per day in drinking water for 2 weeks, epinephrine 1 mg/kg i.p.

T1 sequence (Q92736 whole entry R2474S, the tested form may be a part): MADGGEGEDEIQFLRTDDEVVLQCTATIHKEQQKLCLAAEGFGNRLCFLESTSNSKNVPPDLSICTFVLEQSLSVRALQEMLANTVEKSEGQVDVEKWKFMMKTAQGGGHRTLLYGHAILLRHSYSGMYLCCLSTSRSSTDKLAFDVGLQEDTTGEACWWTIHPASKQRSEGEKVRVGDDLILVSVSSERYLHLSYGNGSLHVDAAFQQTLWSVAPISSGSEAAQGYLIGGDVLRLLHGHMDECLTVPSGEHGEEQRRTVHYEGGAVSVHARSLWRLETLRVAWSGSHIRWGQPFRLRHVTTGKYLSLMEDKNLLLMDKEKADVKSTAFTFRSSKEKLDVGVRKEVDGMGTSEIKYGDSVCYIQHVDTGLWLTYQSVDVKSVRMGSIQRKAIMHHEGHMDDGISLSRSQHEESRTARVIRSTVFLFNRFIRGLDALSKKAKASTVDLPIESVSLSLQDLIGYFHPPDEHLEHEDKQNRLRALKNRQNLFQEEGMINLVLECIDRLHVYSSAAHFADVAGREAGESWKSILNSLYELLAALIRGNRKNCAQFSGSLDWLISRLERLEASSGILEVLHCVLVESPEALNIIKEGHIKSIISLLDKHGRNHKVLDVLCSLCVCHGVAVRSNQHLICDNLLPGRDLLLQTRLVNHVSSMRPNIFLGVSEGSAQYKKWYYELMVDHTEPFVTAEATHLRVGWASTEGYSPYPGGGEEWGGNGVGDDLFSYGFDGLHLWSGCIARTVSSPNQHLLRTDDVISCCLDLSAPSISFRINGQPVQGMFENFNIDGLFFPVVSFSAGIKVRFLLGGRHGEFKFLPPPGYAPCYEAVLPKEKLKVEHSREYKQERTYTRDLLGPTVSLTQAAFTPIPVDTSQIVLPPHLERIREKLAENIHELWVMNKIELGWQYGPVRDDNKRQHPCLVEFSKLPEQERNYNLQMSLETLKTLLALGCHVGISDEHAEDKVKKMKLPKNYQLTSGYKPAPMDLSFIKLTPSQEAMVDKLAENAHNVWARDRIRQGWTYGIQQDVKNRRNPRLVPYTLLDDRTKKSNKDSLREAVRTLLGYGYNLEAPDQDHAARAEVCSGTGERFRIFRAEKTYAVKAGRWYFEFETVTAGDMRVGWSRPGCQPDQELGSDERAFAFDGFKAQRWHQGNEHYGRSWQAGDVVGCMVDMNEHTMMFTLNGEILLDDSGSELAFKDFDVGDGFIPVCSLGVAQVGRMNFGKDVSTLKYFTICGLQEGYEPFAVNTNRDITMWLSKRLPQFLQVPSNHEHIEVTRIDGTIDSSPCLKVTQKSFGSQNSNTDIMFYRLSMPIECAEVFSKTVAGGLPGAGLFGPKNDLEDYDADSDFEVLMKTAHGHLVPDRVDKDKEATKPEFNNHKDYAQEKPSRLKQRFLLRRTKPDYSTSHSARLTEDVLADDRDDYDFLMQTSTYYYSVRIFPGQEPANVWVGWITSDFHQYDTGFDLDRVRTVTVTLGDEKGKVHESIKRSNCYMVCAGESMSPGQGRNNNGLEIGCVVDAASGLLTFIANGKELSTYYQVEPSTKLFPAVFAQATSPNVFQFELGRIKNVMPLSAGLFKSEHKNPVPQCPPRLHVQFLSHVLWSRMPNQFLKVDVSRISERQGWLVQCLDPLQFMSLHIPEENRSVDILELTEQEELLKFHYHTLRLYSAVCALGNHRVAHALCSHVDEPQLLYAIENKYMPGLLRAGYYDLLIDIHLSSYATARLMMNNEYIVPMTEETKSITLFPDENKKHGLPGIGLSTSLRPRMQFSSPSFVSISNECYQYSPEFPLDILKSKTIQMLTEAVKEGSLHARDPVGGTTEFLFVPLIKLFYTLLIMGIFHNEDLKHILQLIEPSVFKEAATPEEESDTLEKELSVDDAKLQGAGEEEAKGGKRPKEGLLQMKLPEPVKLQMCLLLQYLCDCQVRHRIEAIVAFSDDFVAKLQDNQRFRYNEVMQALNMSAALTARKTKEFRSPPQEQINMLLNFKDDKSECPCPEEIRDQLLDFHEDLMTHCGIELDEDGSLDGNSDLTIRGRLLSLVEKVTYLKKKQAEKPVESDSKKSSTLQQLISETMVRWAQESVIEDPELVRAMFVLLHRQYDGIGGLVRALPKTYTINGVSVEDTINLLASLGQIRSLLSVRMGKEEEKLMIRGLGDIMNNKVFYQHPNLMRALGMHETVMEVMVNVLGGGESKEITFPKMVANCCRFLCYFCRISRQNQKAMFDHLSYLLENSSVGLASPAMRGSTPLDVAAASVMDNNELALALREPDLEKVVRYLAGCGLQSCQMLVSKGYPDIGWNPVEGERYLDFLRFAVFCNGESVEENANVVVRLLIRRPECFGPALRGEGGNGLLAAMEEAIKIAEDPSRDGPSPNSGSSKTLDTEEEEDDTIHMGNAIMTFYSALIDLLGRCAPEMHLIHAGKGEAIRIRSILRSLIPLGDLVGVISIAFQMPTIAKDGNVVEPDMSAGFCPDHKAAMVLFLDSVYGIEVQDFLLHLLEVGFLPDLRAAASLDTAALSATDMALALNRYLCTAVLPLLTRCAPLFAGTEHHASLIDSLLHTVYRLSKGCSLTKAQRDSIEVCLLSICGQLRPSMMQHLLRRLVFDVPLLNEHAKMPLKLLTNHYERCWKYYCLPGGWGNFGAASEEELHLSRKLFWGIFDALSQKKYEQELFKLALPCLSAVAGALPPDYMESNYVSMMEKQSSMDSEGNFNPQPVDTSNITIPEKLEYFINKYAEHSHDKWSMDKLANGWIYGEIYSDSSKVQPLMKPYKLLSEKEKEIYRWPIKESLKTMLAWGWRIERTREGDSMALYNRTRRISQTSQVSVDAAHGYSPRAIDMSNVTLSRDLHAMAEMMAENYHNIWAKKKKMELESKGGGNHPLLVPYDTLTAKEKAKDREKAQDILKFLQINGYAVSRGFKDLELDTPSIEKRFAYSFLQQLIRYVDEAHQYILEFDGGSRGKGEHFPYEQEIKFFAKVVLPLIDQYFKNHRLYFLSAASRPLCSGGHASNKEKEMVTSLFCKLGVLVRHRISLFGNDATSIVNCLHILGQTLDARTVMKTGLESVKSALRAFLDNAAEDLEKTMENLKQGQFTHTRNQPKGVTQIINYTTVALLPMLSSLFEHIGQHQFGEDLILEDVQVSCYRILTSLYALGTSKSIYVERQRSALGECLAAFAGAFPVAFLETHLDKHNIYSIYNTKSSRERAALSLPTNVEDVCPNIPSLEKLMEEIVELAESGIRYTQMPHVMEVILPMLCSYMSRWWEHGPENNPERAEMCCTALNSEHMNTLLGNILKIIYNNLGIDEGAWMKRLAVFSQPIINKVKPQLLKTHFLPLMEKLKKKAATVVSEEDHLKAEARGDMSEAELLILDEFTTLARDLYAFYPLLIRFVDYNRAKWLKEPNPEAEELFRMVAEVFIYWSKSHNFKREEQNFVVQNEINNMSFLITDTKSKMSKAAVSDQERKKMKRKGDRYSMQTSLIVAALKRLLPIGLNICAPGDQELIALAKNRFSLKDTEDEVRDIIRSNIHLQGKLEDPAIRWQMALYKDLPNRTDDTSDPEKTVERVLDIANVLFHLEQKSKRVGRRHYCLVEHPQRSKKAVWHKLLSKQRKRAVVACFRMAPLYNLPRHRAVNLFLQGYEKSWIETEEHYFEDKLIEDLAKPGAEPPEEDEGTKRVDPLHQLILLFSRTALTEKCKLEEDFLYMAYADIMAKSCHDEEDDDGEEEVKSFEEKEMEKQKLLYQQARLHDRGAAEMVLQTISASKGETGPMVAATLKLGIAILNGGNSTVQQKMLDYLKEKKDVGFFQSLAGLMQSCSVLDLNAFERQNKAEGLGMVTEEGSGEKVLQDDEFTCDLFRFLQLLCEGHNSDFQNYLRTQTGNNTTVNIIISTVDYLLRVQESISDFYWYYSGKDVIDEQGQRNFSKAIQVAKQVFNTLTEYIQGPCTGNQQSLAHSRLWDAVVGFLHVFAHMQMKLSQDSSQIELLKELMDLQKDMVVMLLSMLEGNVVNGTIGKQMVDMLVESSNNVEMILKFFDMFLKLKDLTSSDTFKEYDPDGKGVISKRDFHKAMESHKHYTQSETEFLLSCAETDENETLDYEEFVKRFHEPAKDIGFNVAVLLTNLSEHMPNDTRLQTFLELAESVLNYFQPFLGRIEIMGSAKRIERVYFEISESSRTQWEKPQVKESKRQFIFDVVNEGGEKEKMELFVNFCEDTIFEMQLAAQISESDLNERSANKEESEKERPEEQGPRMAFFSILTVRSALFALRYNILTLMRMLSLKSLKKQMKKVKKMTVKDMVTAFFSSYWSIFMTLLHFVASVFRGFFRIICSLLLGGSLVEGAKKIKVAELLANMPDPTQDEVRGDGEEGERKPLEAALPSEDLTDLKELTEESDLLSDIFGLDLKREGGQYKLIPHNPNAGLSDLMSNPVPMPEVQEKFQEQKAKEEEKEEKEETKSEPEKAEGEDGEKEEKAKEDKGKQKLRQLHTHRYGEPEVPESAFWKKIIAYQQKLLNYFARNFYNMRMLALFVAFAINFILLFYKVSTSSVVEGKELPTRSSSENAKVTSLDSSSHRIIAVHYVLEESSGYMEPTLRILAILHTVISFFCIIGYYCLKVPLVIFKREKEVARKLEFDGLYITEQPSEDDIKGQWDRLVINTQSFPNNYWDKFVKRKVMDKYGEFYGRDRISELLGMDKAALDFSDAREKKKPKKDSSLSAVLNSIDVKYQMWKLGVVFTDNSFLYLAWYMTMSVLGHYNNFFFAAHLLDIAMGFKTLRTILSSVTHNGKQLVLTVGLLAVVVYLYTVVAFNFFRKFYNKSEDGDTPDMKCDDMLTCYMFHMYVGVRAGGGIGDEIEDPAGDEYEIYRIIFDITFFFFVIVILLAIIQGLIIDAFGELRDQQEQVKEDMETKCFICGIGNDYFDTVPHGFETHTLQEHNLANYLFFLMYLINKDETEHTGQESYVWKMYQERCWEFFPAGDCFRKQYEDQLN
T1 sequence (P68106 whole entry partner, the tested form may be a part): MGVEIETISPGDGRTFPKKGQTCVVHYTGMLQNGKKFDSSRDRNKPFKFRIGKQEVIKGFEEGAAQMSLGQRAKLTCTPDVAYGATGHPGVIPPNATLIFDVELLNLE
T3 sequence (Q92736 whole entry): as the sequence (Q92736 whole entry R2474S, the tested form may be a part) above, with S2474R counted along it

COc1ccc2c(c1)CN(Cc1ccc(C(=O)O)cc1)CCS2 [Compound 1]
effect on the primed state of PKA-phosphorylated RyR2-R2474S (cryo-EM structure comparison) ([1]; 10 mM ATP, 150 nM free Ca2+, 500 μM xanthine): partially reversed the primed state | Normalized difference in RMSD, BSol [1, 2]: 0.32 | Normalized difference in RMSD, BSol2 [1, 2]: 0.40 | Normalized difference in RMSD, NTD [1, 2]: 0.42 | Normalized difference in RMSD, SPRY [1, 2]: 0.41 | reduction toward the closed state in RMSD analysis compared to primed PKA-phosphorylated RyR2-R2474S ([1]; in some domains): more than 50% | RMSD Cα BSol, P-RyR2-R2474S + Cpd1 (PDB:7UA1) vs P-RyR2-C (PDB:7U9Q) ([1]; vs closed PKA RyR2): 1.61 ± Å | RMSD Cα NTD, P-RyR2-R2474S + Cpd1 (PDB:7UA1) vs P-RyR2-C (PDB:7U9Q) ([1]; vs closed PKA RyR2): 1.20 ± Å | RMSD Cα SPRY, P-RyR2-R2474S + Cpd1 (PDB:7UA1) vs P-RyR2-C (PDB:7U9Q) ([1]; vs closed PKA RyR2): 0.88 ± Å | RMSD Cα BSol2, P-RyR2-R2474S + Cpd1 (PDB:7UA1) vs P-RyR2-C (PDB:7U9Q) ([1]; vs closed PKA RyR2, 10 mM NaATP, 500 μM xanthine, 150 nM free Ca2+): 3.08 ± Å | RMSD Cα CSol, P-RyR2-R2474S + Cpd1 (PDB:7UA1) vs P-RyR2-C (PDB:7U9Q) ([1]; vs closed PKA RyR2, aligned control domain, used as error): 0.53 Å | RMSD Cα BSol2, P-RyR2-R2474S + Cpd1 (PDB:7UA1) vs P-RyR2-O (PDB:7U9R) ([1]; vs open PKA RyR2): 4.63 ± Å | RMSD Cα BSol, P-RyR2-R2474S + Cpd1 (PDB:7UA1) vs P-RyR2-O (PDB:7U9R) ([1]; vs open PKA RyR2): 3.36 ± Å | RMSD Cα NTD, P-RyR2-R2474S + Cpd1 (PDB:7UA1) vs P-RyR2-O (PDB:7U9R) ([1]; vs open PKA RyR2): 1.66 ± Å | RMSD Cα SPRY, P-RyR2-R2474S + Cpd1 (PDB:7UA1) vs P-RyR2-O (PDB:7U9R) ([1]; vs open PKA RyR2): 1.25 ± Å | RMSD Cα CSol, P-RyR2-R2474S + Cpd1 (PDB:7UA1) vs P-RyR2-O (PDB:7U9R) ([1]; vs open PKA RyR2, aligned control domain, used as error): 0.41 Å | frequency of ventricular tachycardia (Ryr2^R2474S/WT mice; [3]): reduced the frequency of ventricular tachycardia | sudden cardiac death (SCD) (Ryr2^R2474S/WT mice; [3]): prevented sudden cardiac death | sustained ventricular tachycardia (sVT) (Ryr2^R2474S/WT mice; 50 mg/kg/day in drinking water, epinephrine 1 mg/kg): prevented sVT | SR Ca^2+ leak (increase in Fluo-4 signal after thapsigargin) (RyR2-R2474S channels): prevented SR Ca^2+ leak

O=c1[nH]c(=O)c2[nH]cnc2[nH]1 [xanthine]
increase in the open probability of RyR2 (recombinant RyR2): ~25 fold
